Results reported in ChEMBL document CHEMBL3885861, “Open TG-GATES”.

Organism: Rattus norvegicus
Assay: Open TG-GATES - Regimen: Daily Repeat
Type: toxicity, organism-based, Sprague-Dawley
Parameters: regimen Daily Repeat, gender Male, age 6 weeks
Details: in vivo, po, 0 mg/kg, route gavage, dose level Control; for APTT / Bas / Eos / Fbg / Hb / Ht / Lym / MCHC / MCV / Mono / Neu / PT / Plat / RBC / Ret / WBC: tissue Blood; for KIDNEY_L / KIDNEY_R / KIDNEY_TOTAL: tissue Kidney; for LIVER: tissue Liver; for ALP / ALT / AST / BUN / CRE / Ca / Cl / DBIL / GLC / IP / K / LDH / Na / PL / RALB / TBIL / TC / TG / TP / gamma-GTP: tissue Plasma

C1CCC(C(CC2CCCCN2)C2CCCCC2)CC1 (centres undefined) [PERHEXILINE]
TERMINAL_BW (72 h, time 3 day): 228.9 g
APTT (72 h, time 3 day): 21.9 s
Bas (72 h, time 3 day): 0%
Eos (72 h, time 3 day): 0.8%
Fbg (72 h, time 3 day): 312.4 mg/dL
Hb (72 h, time 3 day): 13.2 g/dL
Ht (72 h, time 3 day): 39.2%
Lym (72 h, time 3 day): 79%
MCHC (72 h, time 3 day): 33.8%
MCV (72 h, time 3 day): 63.9 fL
Mono (72 h, time 3 day): 2.8%
Neu (72 h, time 3 day): 16.2%
PT (72 h, time 3 day): 16.7 s
Plat (72 h, time 3 day): 133 x10_4/uL
RBC (72 h, time 3 day): 613.6 x10_4/ul
Ret (72 h, time 3 day): 7%
WBC (72 h, time 3 day): 89.3 x10_2/uL
KIDNEY_L (72 h, time 3 day): 1.1 g
KIDNEY_R (72 h, time 3 day): 1 g
KIDNEY_TOTAL (72 h, time 3 day): 2.1 g
LIVER (72 h, time 3 day): 11.1 g
ALP (72 h, time 3 day): 1695 IU/L
ALT (72 h, time 3 day): 45.8 IU/L
AST (72 h, time 3 day): 76.4 IU/L
BUN (72 h, time 3 day): 16.4 mg/dL
CRE (72 h, time 3 day): 0.1 mg/dL
Ca (72 h, time 3 day): 11 mg/dL
Cl (72 h, time 3 day): 107.2 meq/L
DBIL (72 h, time 3 day): 0 mg/dL
GLC (72 h, time 3 day): 192.6 mg/dL
IP (72 h, time 3 day): 6.9 mg/dL
K (72 h, time 3 day): 4.3 meq/L
LDH (72 h, time 3 day): 248.8 IU/L
Na (72 h, time 3 day): 143.2 meq/L
PL (72 h, time 3 day): 149.4 mg/dL
RALB (72 h, time 3 day): 3.2 g/dL
TBIL (72 h, time 3 day): 0.01 mg/dL
TC (72 h, time 3 day): 75.6 mg/dL
TG (72 h, time 3 day): 113.8 mg/dL
TP (72 h, time 3 day): 5.8 g/dL
gamma-GTP (72 h, time 3 day): 1 IU/L
TERMINAL_BW ([…], time 7 day): 255.2 g
TERMINAL_BW ([…], time 14 day): 290.3 g
TERMINAL_BW ([…], time 28 day): 335.5 g
APTT ([…], time 7 day): 21.5 s
Bas ([…], time 7 day): 0%
Eos ([…], time 7 day): 0.6%
Fbg ([…], time 7 day): 316.4 mg/dL
Hb ([…], time 7 day): 13.5 g/dL
Ht ([…], time 7 day): 38.5%
Lym ([…], time 7 day): 81.8%
MCHC ([…], time 7 day): 35.2%
MCV ([…], time 7 day): 61.3 fL
Mono ([…], time 7 day): 1.4%
Neu ([…], time 7 day): 15%
PT ([…], time 7 day): 16.1 s
Plat ([…], time 7 day): 118.5 x10_4/uL
RBC ([…], time 7 day): 629 x10_4/ul
Ret ([…], time 7 day): 5.6%
WBC ([…], time 7 day): 110.4 x10_2/uL
APTT ([…], time 14 day): 23.3 s
Bas ([…], time 14 day): 0%
Eos ([…], time 14 day): 0.2%
Fbg ([…], time 14 day): 294 mg/dL
Hb ([…], time 14 day): 15 g/dL
Ht ([…], time 14 day): 42.7%
Lym ([…], time 14 day): 82%
MCHC ([…], time 14 day): 35.2%
MCV ([…], time 14 day): 60.8 fL
Mono ([…], time 14 day): 1.2%
Neu ([…], time 14 day): 15.2%
PT ([…], time 14 day): 16.2 s
Plat ([…], time 14 day): 116.2 x10_4/uL
RBC ([…], time 14 day): 702.8 x10_4/ul
Ret ([…], time 14 day): 3.5%
WBC ([…], time 14 day): 97.2 x10_2/uL
APTT ([…], time 28 day): 21.5 s
Bas ([…], time 28 day): 0%
Eos ([…], time 28 day): 0.6%
Fbg ([…], time 28 day): 316.4 mg/dL
Hb ([…], time 28 day): 13.5 g/dL
Ht ([…], time 28 day): 38.5%
Lym ([…], time 28 day): 81.8%
MCHC ([…], time 28 day): 35.2%
MCV ([…], time 28 day): 61.3 fL
Mono ([…], time 28 day): 1.4%
Neu ([…], time 28 day): 15%
PT ([…], time 28 day): 16.1 s
Plat ([…], time 28 day): 118.5 x10_4/uL
RBC ([…], time 28 day): 629 x10_4/ul
Ret ([…], time 28 day): 5.6%
WBC ([…], time 28 day): 110.4 x10_2/uL
KIDNEY_L ([…], time 7 day): 1.1 g
KIDNEY_R ([…], time 7 day): 1.1 g
KIDNEY_TOTAL ([…], time 7 day): 2.2 g
KIDNEY_L ([…], time 14 day): 1.1 g
KIDNEY_R ([…], time 14 day): 1.1 g
KIDNEY_TOTAL ([…], time 14 day): 2.3 g
KIDNEY_L ([…], time 28 day): 1.2 g
KIDNEY_R ([…], time 28 day): 1.2 g
KIDNEY_TOTAL ([…], time 28 day): 2.5 g
LIVER ([…], time 7 day): 11.8 g
LIVER ([…], time 14 day): 12.3 g
LIVER ([…], time 28 day): 12.9 g
ALP ([…], time 7 day): 1691 IU/L
ALT ([…], time 7 day): 38 IU/L
AST ([…], time 7 day): 67.6 IU/L
BUN ([…], time 7 day): 18.6 mg/dL
CRE ([…], time 7 day): 0.2 mg/dL
Ca ([…], time 7 day): 10.5 mg/dL
Cl ([…], time 7 day): 106.6 meq/L
DBIL ([…], time 7 day): 0.002 mg/dL
GLC ([…], time 7 day): 190.4 mg/dL
IP ([…], time 7 day): 6.8 mg/dL
K ([…], time 7 day): 4.1 meq/L
LDH ([…], time 7 day): 174.2 IU/L
Na ([…], time 7 day): 143.6 meq/L
PL ([…], time 7 day): 152.6 mg/dL
RALB ([…], time 7 day): 3.1 g/dL
TBIL ([…], time 7 day): 0.014 mg/dL
TC ([…], time 7 day): 79.8 mg/dL
TG ([…], time 7 day): 101 mg/dL
TP ([…], time 7 day): 5.8 g/dL
gamma-GTP ([…], time 7 day): 1.6 IU/L
ALP ([…], time 14 day): 1487.8 IU/L
ALT ([…], time 14 day): 39.2 IU/L
AST ([…], time 14 day): 71.8 IU/L
BUN ([…], time 14 day): 19 mg/dL
CRE ([…], time 14 day): 0.2 mg/dL
Ca ([…], time 14 day): 10.2 mg/dL
Cl ([…], time 14 day): 107 meq/L
DBIL ([…], time 14 day): 0 mg/dL
GLC ([…], time 14 day): 192 mg/dL
IP ([…], time 14 day): 6.1 mg/dL
K ([…], time 14 day): 4.2 meq/L
LDH ([…], time 14 day): 180 IU/L
Na ([…], time 14 day): 143.2 meq/L
PL ([…], time 14 day): 134 mg/dL
RALB ([…], time 14 day): 3.2 g/dL
TBIL ([…], time 14 day): 0.005 mg/dL
TC ([…], time 14 day): 59 mg/dL
TG ([…], time 14 day): 131.5 mg/dL
TP ([…], time 14 day): 5.8 g/dL
gamma-GTP ([…], time 14 day): 1 IU/L
ALP ([…], time 28 day): 1236.4 IU/L
ALT ([…], time 28 day): 34.4 IU/L
AST ([…], time 28 day): 60 IU/L
BUN ([…], time 28 day): 17.8 mg/dL
CRE ([…], time 28 day): 0.2 mg/dL
Ca ([…], time 28 day): 10.1 mg/dL
Cl ([…], time 28 day): 108.6 meq/L
DBIL ([…], time 28 day): 0 mg/dL
GLC ([…], time 28 day): 204.2 mg/dL
IP ([…], time 28 day): 5.6 mg/dL
K ([…], time 28 day): 4.2 meq/L
LDH ([…], time 28 day): 148.4 IU/L
Na ([…], time 28 day): 143.6 meq/L
PL ([…], time 28 day): 129.6 mg/dL
RALB ([…], time 28 day): 3 g/dL
TBIL ([…], time 28 day): 0.008 mg/dL
TC ([…], time 28 day): 63 mg/dL
TG ([…], time 28 day): 92.8 mg/dL
TP ([…], time 28 day): 6 g/dL
gamma-GTP ([…], time 28 day): 1.4 IU/L
